Data on 16 compounds can be found in US8273774B2, “Phenoxypyridinylamide compounds” (AstraZeneca AB, priority 2008, dated 2012).

The structures appear in SMILES notation. Counter-ions that a name gives are not always drawn.

For this assay, the target named is recombinant Human Phosphodiesterase B2 (PDE4B2) (Homo sapiens, UniProt Q07343). Put plainly: Human Phosphodiesterase B2 Radiometric Assay. Type of assay: biochemical. The conditions noted are these: 0.1 μg/mL recombinant PDE4B2; preincubated at 30 C for 30 min; [3H]cyclic AMP 8 nM, stopped after 20 min; yttrium silicate SPA beads; read-out: PDE4B2 pIC50 (converted). Put shortly: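 Compounds preincubated 30 min at 30 C with 0.1 μg/mL recombinant PDE4B2 in 50 mM HEPES pH 7.5, 8.3 mM MgCl2, 1.7 mM EGTA, 0.01% Brij 35.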
Sequence of recombinant Human Phosphodiesterase B2 (PDE4B2) (Q07343 1-564 isoform Q07343-2): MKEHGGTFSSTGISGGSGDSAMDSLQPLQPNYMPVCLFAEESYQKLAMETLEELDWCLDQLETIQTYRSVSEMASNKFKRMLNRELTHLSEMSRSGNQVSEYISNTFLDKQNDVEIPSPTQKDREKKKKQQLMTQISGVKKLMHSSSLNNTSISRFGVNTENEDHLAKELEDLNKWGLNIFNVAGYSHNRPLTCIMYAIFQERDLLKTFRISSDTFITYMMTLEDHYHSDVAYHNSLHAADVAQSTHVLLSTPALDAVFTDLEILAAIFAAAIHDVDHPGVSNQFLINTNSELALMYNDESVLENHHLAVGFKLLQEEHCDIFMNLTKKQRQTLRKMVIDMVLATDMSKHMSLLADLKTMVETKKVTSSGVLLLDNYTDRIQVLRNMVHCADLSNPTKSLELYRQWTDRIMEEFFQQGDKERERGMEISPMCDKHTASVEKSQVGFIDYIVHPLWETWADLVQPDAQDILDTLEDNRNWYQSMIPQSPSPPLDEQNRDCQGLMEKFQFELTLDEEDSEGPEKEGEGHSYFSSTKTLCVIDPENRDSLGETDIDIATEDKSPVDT

For `C[C@@H]1CN(Cc2ccc(-c3cccc(Oc4ncc(F)cc4C(=O)N[C@H]4CC[C@@H](NC(=O)c5cccc6cccnc56)CC4)c3)c(CN3CCOCC3)c2)C[C@H](C)N1` [Example 146, N-((1s,4s)-4-(2-(4′-(((3S,5R)-3,5-dimethylpiperazin-1-yl)methyl)-2′-(morpholinomethyl)biphenyl-3-yloxy)-5-fluoronicotinamido)cyclohexyl)quinoline-8-carboxamide], the IC50 was 0.0316 nM.
As for `Cc1cc(CN[C@H]2CC[C@@H](NC(=O)c3cc(F)cnc3Oc3cccc(-c4ccc(O)cc4CN4CCOCC4)c3)CC2)nn1C` [Example 3, N-((1s,4s)-4-((1,5-dimethyl-1H-pyrazol-3-yl)methylamino)cyclohexyl)-5-fluoro-2-(4′-hydroxy-2′-(morpholinomethyl)biphenyl-3-yloxy)nicotinamide trifluoroacetate], the figure is 1.26 nM.
As to `C[C@@H]1CN(CCCc2ccc(-c3cccc(Oc4ncc(F)cc4C(=O)N[C@H]4CC[C@@H](NC(=O)c5cn6c(n5)CCCC6)CC4)c3)cc2)C[C@H](C)N1` [Example 104, N-((1s,4s)-4-(2-(4′-(3-((3S,5R)-3,5-dimethylpiperazin-1-yl)propyl)biphenyl-3-yloxy)-5-fluoronicotinamido)cyclohexyl)-5,6,7,8-tetrahydroimidazo[1,2-a]pyridine-2-carboxamide], the IC50 is 0.0316 nM.
`Cc1nc(CN[C@H]2CC[C@@H](NC(=O)c3cc(F)cnc3Oc3cccc(-c4ccc(O)cc4CN4CCOCC4)c3)CC2)cs1` [Example 5, 5-fluoro-2-(4′-hydroxy-2′-(morpholinomethyl)biphenyl-3-yloxy)-N-((1s,4s)-4-((2-methylthiazol-4-yl)methylamino)cyclohexyl)nicotinamide]: the IC50 was 5.01 nM.
Then `Cc1cccc2nc(C(=O)N[C@H]3CC[C@@H](NC(=O)c4cc(F)cnc4Oc4cccc(-c5ccc(CCCN6CCNCC6)cc5)c4)CC3)cn12` [Example 93, N-((1s,4s)-4-(5-fluoro-2-(4′-(3-(piperazin-1-yl)propyl)biphenyl-3-yloxy)nicotinamido)cyclohexyl)-5-methylimidazo[1,2-a]pyridine-2-carboxamide], with 0.1 nM.
As for `C[C@@H]1CN(Cc2ccc(-c3cccc(Oc4ncc(F)cc4C(=O)N[C@H]4CC[C@@H](NC(=O)c5cc6n(n5)CCCC6)CC4)c3)cc2)C[C@H](C)N1` [Example 113, N-((1s,4s)-4-(2-(4′-(((3S,5R)-3,5-dimethylpiperazin-1-yl)methyl)biphenyl-3-yloxy)-5-fluoronicotinamido)cyclohexyl)-4,5,6,7-tetrahydropyrazolo[1,5-a]pyridine-2-carboxamide], the figure is 0.0501 nM; as for `C[C@@H]1CN(Cc2cc(-c3cccc(Oc4ncc(F)cc4C(=O)N[C@H]4CC[C@@H](NC(=O)c5cn6cc(F)ccc6n5)CC4)c3)ccc2O)C[C@H](C)N1` [Example 84, N-((1s,4s)-4-(2-(3′-(((3S,5R)-3,5-dimethylpiperazin-1-yl)methyl)-4′-hydroxybiphenyl-3-yloxy)-5-fluoronicotinamido)cyclohexyl)-6-fluoroimidazo[1,2-a]pyridine-2-carboxamide], 0.158 nM.
`Cc1cccc2nc(CN[C@H]3CC[C@@H](NC(=O)c4cc(F)cnc4Oc4cccc(-c5ccc(O)cc5CN5CCOCC5)c4)CC3)cn12` [Example 8, 5-fluoro-2-(4′-hydroxy-2′-(morpholinomethyl)biphenyl-3-yloxy)-N-((1s,4s)-4-((5-methylimidazo[1,2-a]pyridin-2-yl)methylamino)cyclohexyl)nicotinamide]: the IC50 is 0.631 nM.
`Cc1cccc2nc(C(=O)N[C@H]3CC[C@@H](NC(=O)c4cc(F)cnc4Oc4cccc(-c5ccc(CN6CCCN(C)CC6)cc5)c4)CC3)cn12` [Example 64, N-((1s,4s)-4-(5-fluoro-2-(4′-((4-methyl-1,4-diazepan-1-yl)methyl)biphenyl-3-yloxy)nicotinamido)cyclohexyl)-5-methylimidazo[1,2-a]pyridine-2-carboxamide]: the IC50 was 0.126 nM.
Regarding `Cn1nc(C(=O)N[C@H]2CC[C@@H](NC(=O)c3cc(F)cnc3Oc3cccc(-c4ccc(CCCN5CCNCC5)cc4)c3)CC2)cc1C(F)(F)F` [Example 160, 5-Fluoro-N-((1s,4s)-4-(1-methyl-5-(trifluoromethyl)-1H-pyrazole-3-carboxamido)cyclohexyl)-2-(4′-(3-(piperazin-1-yl)propyl)biphenyl-3-yloxy)nicotinamide], the IC50 is 0.01 nM.
As for `Cc1cc(C(=O)N[C@H]2CC[C@@H](NC(=O)c3cc(F)cnc3Oc3cccc(-c4ccc(O)c(CN5CCN(C(C)C)CC5)c4)c3)CC2)nn1C` [Example 77, N-((1s,4s)-4-(1,5-dimethyl-1H-pyrazole-3-carboxamido)cyclohexyl)-5-fluoro-2-(4′-hydroxy-3′-((4-isopropylpiperazin-1-yl)methyl)biphenyl-3-yloxy)nicotinamide], the figure is 0.0631 nM; as for `CC(C)NC(=O)CN1CCN(Cc2ccc(-c3cccc(Oc4ncc(F)cc4C(=O)N[C@H]4CC[C@@H](NC(=O)c5cc6n(n5)CCCC6)CC4)c3)c(CN3CCOCC3)c2)CC1` [Example 200, N-((1s,4s)-4-(5-fluoro-2-(4′-((4-(2-(isopropylamino)-2-oxoethyl)piperazin-1-yl)methyl)-2′-(morpholinomethyl)biphenyl-3-yloxy)nicotinamido)cyclohexyl)-4,5,6,7-tetrahydropyrazolo[1,5-a]pyridine-2-carboxamide], 0.0251 nM.
In the case of `CC(C)NC(=O)CN1CCN(Cc2ccc(-c3cccc(Oc4ncc(F)cc4C(=O)N[C@H]4CC[C@@H](NC(=O)c5cccc6[nH]cnc56)CC4)c3)c(CN3CCOCC3)c2)CC1` [Example 201, N-((1s,4s)-4-(5-fluoro-2-(4′-((4-(2-(isopropylamino)-2-oxoethyl)piperazin-1-yl)methyl)-2′-(morpholinomethyl)biphenyl-3-yloxy)nicotinamido)cyclohexyl)-1H-benzo[d]imidazole-4-carboxamide], the IC50 is 0.0158 nM.
Then `Cc1nc(C(=O)N[C@H]2CC[C@@H](NC(=O)c3cc(F)cnc3Oc3cccc(-c4ccc(O)cc4CN(C)CC(=O)N(C)C)c3)CC2)cs1` [Example 30, N-((1s,4s)-4-(2-(2′-(((2-(dimethylamino)-2-oxoethyl)(methyl)amino)methyl)-4′-hydroxybiphenyl-3-yloxy)-5-fluoronicotinamido)cyclohexyl)-2-methylthiazole-4-carboxamide], with 0.0398 nM.
As for `CC(C)c1nc(C(=O)N[C@H]2CC[C@@H](NC(=O)c3cc(F)cnc3Oc3cccc(-c4ccc(O)cc4CN4CCOCC4)c3)CC2)cs1` [Example 39, N-((1s,4s)-4-(5-fluoro-2-(4′-hydroxy-2′-(morpholinomethyl)biphenyl-3-yloxy)nicotinamido)cyclohexyl)-2-isopropylthiazole-4-carboxamide], the figure is 0.02 nM; as for `Cc1cccc2nc(C(=O)N[C@H]3CC[C@@H](NC(=O)c4cc(F)cnc4Oc4cccc(-c5ccc(CN(C)C)cc5)c4)CC3)cn12` [Example 47, N-((1s,4s)-4-(2-(4′-((dimethylamino)methyl)biphenyl-3-yloxy)-5-fluoronicotinamido)cyclohexyl)-5-methylimidazo[1,2-a]pyridine-2-carboxamide], 0.794 nM.
